Tests used:
BACE1 = molecular target: T1, BACE1 (Homo sapiens, UniProt P56817); experiment: BACE1 biochemical FRET based assay; settings: recombinant BACE1 0.04 μg/ml, 20 μM substrate, 450 min, pH 5.0; for IC50: read-out: BIOCHEMICAL FRET BASED ASSAY pIC50 (converted)
T1 construct: recombinant BACE1 protein in a final concentration of 0.04 μg/ml
How it was run: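 Recombinant BACE1 (0.04 μg/ml final) incubated 450 min at room temperature with 20 μM Mca/Dnp-labelled 13-mer Swedish APP peptide in 50 mM citrate pH 5.0, 0.05% PEG. Fluorescence (ex 320/em 405 nm) at 450 min minus early baseline Tx; IC50 fitted from % Controlmin versus concentration.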

[1] = tested on: Abeta 1-42 produced and secreted by SKNBE2 cells expressing hAPP695; experiment: Cellular αLisa assay in SKNBE2 cells, Abeta 1-42; type: cell-based, human; settings: SKNBE2 cells expressing hAPP695, 18 hours incubation; for IC50: Homo sapiens, SKNBE2, 18 h, read-out: CELLULAR αLISA ASSAY IN SKNBE2 CELLS ABETA 42 PIC50 (converted)
How it was run: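 Human neuroblastoma SKNBE2 cells expressing wild-type hAPP695 treated with compound for 18 h; secreted Abeta total or Abeta 1-42 in medium measured by sandwich αLisa (AbN/25 with Ab4G8 or cAb42/26), read after 1 h. IC50 from least-squares fit of % Controlmin, normalised to untreated and no-antibody controls.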

BACE2 = molecular target: T2, BACE2 (Homo sapiens, UniProt Q9Y5Z0); experiment: BACE2 biochemical FRET based assay; settings: recombinant BACE2 0.4 μg/ml, 10 μM substrate, 450 min, pH 5.0; for IC50: read-out: BIOCHEMICAL FRET BASED ASSAY pIC50 (converted)
T2 construct: recombinant BACE2 protein in a final concentration of 0.4 μg/ml
T2 sequence (Q9Y5Z0 63-518): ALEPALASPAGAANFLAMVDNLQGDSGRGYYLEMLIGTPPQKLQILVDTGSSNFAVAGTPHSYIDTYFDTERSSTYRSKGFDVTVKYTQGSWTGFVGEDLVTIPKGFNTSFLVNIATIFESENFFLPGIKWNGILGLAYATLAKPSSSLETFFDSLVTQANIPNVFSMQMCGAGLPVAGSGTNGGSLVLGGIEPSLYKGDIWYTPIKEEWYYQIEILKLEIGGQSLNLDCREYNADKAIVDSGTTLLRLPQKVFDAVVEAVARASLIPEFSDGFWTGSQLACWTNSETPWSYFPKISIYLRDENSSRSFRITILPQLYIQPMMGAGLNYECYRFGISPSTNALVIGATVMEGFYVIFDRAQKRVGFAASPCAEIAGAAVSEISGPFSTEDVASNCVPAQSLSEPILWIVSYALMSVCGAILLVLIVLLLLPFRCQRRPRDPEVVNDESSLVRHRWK
How it was run: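 Recombinant enzyme (0.4 μg/ml final) incubated 450 min at room temperature with 10 μM Mca/Dnp-quenched Swedish-mutant APP peptide in 50 mM citrate pH 5.0, 0.05% PEG, no DMSO. Fluorescence (ex 320/em 405 nm) change from T0 to T450 normalised to no-enzyme and enzyme controls; IC50 from least-squares curve fit.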

T1 sequence (P56817 46-501): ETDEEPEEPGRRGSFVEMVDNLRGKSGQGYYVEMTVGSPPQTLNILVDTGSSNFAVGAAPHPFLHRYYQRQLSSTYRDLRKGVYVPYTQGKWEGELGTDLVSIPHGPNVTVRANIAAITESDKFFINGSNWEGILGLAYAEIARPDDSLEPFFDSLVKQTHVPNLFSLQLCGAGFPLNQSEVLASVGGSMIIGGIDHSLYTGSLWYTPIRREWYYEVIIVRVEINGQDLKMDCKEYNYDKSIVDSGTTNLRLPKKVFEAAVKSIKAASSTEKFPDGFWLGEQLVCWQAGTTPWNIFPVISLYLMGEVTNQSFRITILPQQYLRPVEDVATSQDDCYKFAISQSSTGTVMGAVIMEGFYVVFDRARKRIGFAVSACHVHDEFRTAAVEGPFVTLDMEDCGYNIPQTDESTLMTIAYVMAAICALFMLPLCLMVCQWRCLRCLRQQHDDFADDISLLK

| SMILES | BIOCHEMICAL FRET BASED ASSAY pIC50 (BACE1) | BIOCHEMICAL FRET BASED ASSAY pIC50 (BACE2) | IC50 (BACE1) [nM] | IC50 [1] [nM] | IC50 (BACE2) [nM] | CELLULAR αLISA ASSAY IN SKNBE2 CELLS ABETA 42 PIC50 [1] |
| --- | --- | --- | --- | --- | --- | --- |
| COc1ncc(-c2ccccc2)c2c1C[C@]1(c3ccc(F)cc3F)N=C(N)SC[C@@H]1C2 [Compound 49] | 8.81 | 8.43 | – | – | – | 8.56 |
| COC/C=C/c1cnc(OC)c2c1C[C@H]1CSC(N)=N[C@@]1(c1ccc(F)cc1F)C2 [Compound 47] | – | – | 10.2 | 5.62 | 6.61 | – |
| COc1ncc(C#N)c2c1C[C@]1(c3ccccc3F)N=C(N)SC[C@@H]1C2 (racemic) [Compound 22] | – | – | 178 | 41.7 | 240 | – |

Now from value to molecule, other results behind:

| BIOCHEMICAL FRET BASED ASSAY pIC50 (BACE1) | BIOCHEMICAL FRET BASED ASSAY pIC50 (BACE2) | IC50 (BACE1) [nM] | IC50 [1] [nM] | IC50 (BACE2) [nM] | SMILES | CELLULAR αLISA ASSAY IN SKNBE2 CELLS ABETA 42 PIC50 [1] |
| --- | --- | --- | --- | --- | --- | --- |
| – | – | 8.71 | 5.89 | 195 | COc1cc(C)c(-c2cnc(OC)c3c2C[C@H]2CSC(N)=N[C@@]2(c2ccc(F)cc2F)C3)cn1 [Compound 106] | – |
| 8.26 | 6.9 | – | – | – | COc1ncc(-c2cc(Cl)ccc2C)c2c1C[C@]1(c3ccc(F)cc3F)N=C(N)SC[C@@H]1C2 [Compound 60] | 7.25 |
| 8.45 | 7.4 | – | – | – | COc1ncc(-c2ccccc2C)c2c1C[C@]1(c3ccc(F)cc3F)N=C(N)SC[C@@H]1C2 [Compound 55] | 7.99 |

— US20200010482A1, “INHIBITORS OF BETA SECRETASE” (Janssen Pharmaceutica NV, priority 2017, published 2020)
